Experiments:
[1] = tested on: intraocular pressure; assay: IOP in Japanese White rabbits after topical administration; format: in vivo; conditions: 50 microliter to right eye, FIG. 1
Description: (§1) In Japanese White rabbits, IOP was measured at baseline (immediately preceding administration of test article) and at predetermined time points (1, 2, 3, 5, 7, 9, 24 hours; additional time points were 30 and 48 hours after intravitreal administration) after topical (FIG. 1) or intravitreal (FIG. 2) administration of ophthalmic formulations containing drug, vehicle or saline using applanation tonometry. Test articles were topically administered in a 50 microliter volume to the right eye, saline in a 50 microliter volume to the contralateral, left eye. For intravitreal administration, dosing volumes were 20 microliters instead. For each animal, the difference between right eye IOP and left eye IOP was calculated as delta IOP.

[2] = tested on: intraocular pressure; assay: IOP in Japanese White rabbits after intravitreal administration; format: in vivo; conditions: FIG. 2
Description: as §1

[3] = target: T1, soluble guanylate cyclase (sGC) (Rattus norvegicus, UniProt P20595); assay: Cellular assay, VASP phosphorylation in rat aortic smooth muscle cells with ODQ; format: cell-based; conditions: phospho-VASP signal, primary rat aortic smooth muscle cells, 10 μM ODQ, 30 min incubation; 50% vs. Bmax; read-out: Cell assay pEC50 (converted)
T1 construct: endogenous in cells; host or cells: primary rat aortic smooth muscle cells
T1 sequence (P20595 1-619): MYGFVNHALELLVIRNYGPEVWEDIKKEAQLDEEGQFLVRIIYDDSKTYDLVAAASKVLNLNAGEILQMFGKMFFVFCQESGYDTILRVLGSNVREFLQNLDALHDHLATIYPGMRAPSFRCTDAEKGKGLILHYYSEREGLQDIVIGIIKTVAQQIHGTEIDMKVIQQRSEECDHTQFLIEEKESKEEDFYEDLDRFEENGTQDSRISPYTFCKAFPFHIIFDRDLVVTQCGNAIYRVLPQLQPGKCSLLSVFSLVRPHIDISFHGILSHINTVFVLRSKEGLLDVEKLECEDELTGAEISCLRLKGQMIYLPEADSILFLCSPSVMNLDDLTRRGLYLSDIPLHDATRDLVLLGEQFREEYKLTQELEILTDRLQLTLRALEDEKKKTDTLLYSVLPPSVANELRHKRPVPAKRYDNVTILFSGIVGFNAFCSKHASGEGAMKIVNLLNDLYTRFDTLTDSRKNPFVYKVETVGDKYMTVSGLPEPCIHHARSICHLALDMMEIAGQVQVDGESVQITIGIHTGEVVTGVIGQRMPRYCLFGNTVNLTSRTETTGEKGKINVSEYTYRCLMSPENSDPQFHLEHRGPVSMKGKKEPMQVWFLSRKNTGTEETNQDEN
T1 sequence (P19686 1-690 partner): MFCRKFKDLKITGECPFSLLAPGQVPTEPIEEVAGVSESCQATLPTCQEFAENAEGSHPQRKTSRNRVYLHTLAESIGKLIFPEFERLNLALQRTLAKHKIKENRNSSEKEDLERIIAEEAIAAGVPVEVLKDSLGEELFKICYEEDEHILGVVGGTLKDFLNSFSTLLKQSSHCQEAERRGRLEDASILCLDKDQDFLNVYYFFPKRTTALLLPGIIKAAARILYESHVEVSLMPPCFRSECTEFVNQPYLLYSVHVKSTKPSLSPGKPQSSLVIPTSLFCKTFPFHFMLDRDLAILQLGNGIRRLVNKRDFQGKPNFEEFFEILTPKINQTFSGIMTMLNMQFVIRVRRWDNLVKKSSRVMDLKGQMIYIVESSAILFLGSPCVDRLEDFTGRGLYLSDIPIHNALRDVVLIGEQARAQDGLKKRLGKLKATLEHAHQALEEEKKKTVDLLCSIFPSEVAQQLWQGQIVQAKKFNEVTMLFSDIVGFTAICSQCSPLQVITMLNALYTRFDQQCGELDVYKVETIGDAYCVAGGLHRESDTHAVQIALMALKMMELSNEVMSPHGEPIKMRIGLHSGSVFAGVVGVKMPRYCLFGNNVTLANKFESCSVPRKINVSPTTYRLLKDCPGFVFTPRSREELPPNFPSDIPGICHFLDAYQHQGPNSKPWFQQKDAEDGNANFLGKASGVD
Description: The activity of soluble guanylate cyclase (sGC) was tested in an assay based on measuring phosphorylation of the protein kinase G (PKG) substrate vasodilator-stimulated phosphoprotein (VASP) in rat aortic smooth muscle cells. […] Dimethylsulfoxide (DMSO) vehicle and varying concentrations of the compound to be tested were then added. Following a 30 min incubation at 37° C., media was aspirated and the cells were rinsed with phosphate-buffered saline (PBS) and fixed with 4% formaldehyde in PBS by incubating at room temperature for 20 min. Cells were then washed with PBS and permeabilized for 10 min using 0.1% triton X-100 in PBS. Following PBS rinsing, the cells were blocked for 90 min at room temperature with blocking buffer. The buffer was aspirated and the cells were treated overnight at 4° C. with primary antibody (pSer239-VASP, rabbit polyclonal Ab) diluted 1:500 in blocking buffer. Following three washes with 0.05% Tween 20, the cells were treated for 1 h at room temperature with a fluorescent labeled secondary antibody (IRDye® 800CW Donkey Anti-Rabbit IgG) diluted 1:2500 in blocking buffer with 0.05% Tween 20. Following two washes with PBS, infrared fluorescence was measured using an Odyssey Infrared Imaging System. The activity of a test compound was determined as the pEC50 value which is the concentration able to increase by 50% (vs. Bmax) the phospho-VASP fluorescent signal. Front. Pharmacol., 5 Jul. 2012|doi: 10.3389/fphar.2012.00128, Volume 3 July, 2012, Article number 128.

[4] = tested on: intraocular pressure; assay: IOP in normal C57BL/6J mice after topical administration; format: in vivo; conditions: 4 microliter to right eye, compared with latanoprost, FIG. 3
Description: Additionally, the effect on IOP in normal mice was also assessed. In C57BL/6J mice, IOP was measured at baseline (immediately preceding administration of test article) and at predetermined time points (1, 2, 3, 4, 6, 8, 24 hours) after topical administration of ophthalmic formulations containing drug, vehicle or saline using a TonoLab. Test articles were administered in a 4 microliter volume to the right eye, saline in a 4 microliter volume to the contralateral, left eye. For each animal, the difference between right eye IOP and left eye IOP was calculated as delta IOP.

Structure (SMILES) | EC50 [3] [nM] | also measured
Cc1cc(OCCCC(F)(F)F)ccc1CCc1ccccc1-c1cccc(-n2ncc(C(=O)O)c2C(F)(F)F)n1 [Example 1, 1-(6-(2-(2-methyl-4-(4,4,4-trifluorobutoxy)phenethyl)phenyl)pyridin-2-yl)-5-(trifluoromethyl)-1H-pyrazole-4-carboxylic acid] | 14.5 | effect on IOP (delta IOP) [1]: dose-dependently and effectively decreased IOP; effect on IOP (delta IOP) ([2]; 20 microliters to right eye): long-lasting and effective reduction in IOP; duration of IOP reduction [2]: at least 48 hours; effect on IOP (delta IOP) [4]: lowered IOP with efficacy similar to latanoprost, but without the initial hypertensive spike
Cc1cc(OCCCn2ccc(C(F)(F)F)n2)ccc1CCc1ccccc1-c1cccc(-n2ncc(C(=O)O)c2C(F)(F)F)n1 [Example 3, 1-(6-(2-(2-methyl-4-(3-(3-(trifluoromethyl)-1H-pyrazol-1-yl)propoxy)phenethyl)phenyl)pyridin-2-yl)-5-(trifluoromethyl)-1H-pyrazole-4-carboxylic acid] | 5.89 | 
O=C(O)c1cnn(-c2cccc(-c3ccccc3OCc3ccc(OCCCC(F)(F)F)cc3F)n2)c1C(F)(F)F [Example 5, 1-(6-(2-((2-fluoro-4-(4,4,4-trifluorobutoxy)benzyl)oxy)phenyl)pyridin-2-yl)-5-(trifluoromethyl)-1H-pyrazole-4-carboxylic acid] | 60.3 | 
COCCCOc1ccc(COc2ccccc2-c2cccc(-n3ncc(C(=O)O)c3C(F)(F)F)n2)c(F)c1 [Example 6, 1-(6-(2-((2-fluoro-4-(3-methoxypropoxy)benzyl)oxy)phenyl)pyridin-2-yl)-5-(trifluoromethyl)-1H-pyrazole-4-carboxylic acid] | 151 | 
Cc1cc(OCCCC#N)ccc1COc1ccccc1-c1cccc(-n2ncc(C(=O)O)c2C(F)(F)F)n1 [Example 9, 1-(6-(2-((4-(3-cyanopropoxy)-2-methylbenzyl)oxy)phenyl)pyridin-2-yl)-5-(trifluoromethyl)-1H-pyrazole-4-carboxylic acid] | > 631 | 
COCCCOc1ccc(COc2ccccc2-c2cccc(-n3ncc(C(=O)O)c3C(F)(F)F)n2)c(C)c1 [Example 10, 1-(6-(2-((4-(3-methoxypropoxy)-2-methylbenzyl)oxy)phenyl)pyridin-2-yl)-5-(trifluoromethyl)-1H-pyrazole-4-carboxylic acid] | 91.2 | 
Cc1cc(OCCCC(F)(F)F)ccc1COc1ccccc1-c1cccc(-n2ncc(C(=O)O)c2C(F)(F)F)n1 [Example 11, 1-(6-(2-((2-methyl-4-(4,4,4-trifluorobutoxy)benzyl)oxy)phenyl)pyridin-2-yl)-5-(trifluoromethyl)-1H-pyrazole-4-carboxylic acid] | 102 | 
